pIC50: −log10 of the molar value.
What follows are compounds tested against Prostaglandin E synthase (Homo sapiens) (UniProt O14684) (assay: Inhibition of human mPGES1).
Sequence of Prostaglandin E synthase (Homo sapiens) (O14684 whole entry, looked up): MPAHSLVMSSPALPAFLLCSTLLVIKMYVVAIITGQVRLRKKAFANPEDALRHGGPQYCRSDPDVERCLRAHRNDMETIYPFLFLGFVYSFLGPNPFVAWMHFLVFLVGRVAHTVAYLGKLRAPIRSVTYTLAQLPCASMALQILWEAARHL
`CCCCCCCCCCCC1=C(O)C(=O)C=C(O)C1=O` [CHEBI:4778] showed a pIC50 of 6.68.

The compounds below were run against Prostaglandin E synthase (Homo sapiens) (UniProt O14684) (assay: Inhibition of mPGES1 in IL-1beta stimulated human A549 cell microsomal membranes assessed as reduction in PGE2 synthase activity after 15 mins using PGH2 substrate by RP-HPLC method).
In the case of `COC1=CC(=O)C(O)=C(C/C=C(\C)CC/C=C(\C)CCC=C(C)C)C1=O`, the pIC50 was less than 5.00. With `CCCCCCCCCCCCCCC1=C(O)C(=O)C=C(OC)C1=O` the pIC50 was less than 5.00. `COC1=CC(=O)C(O)=C(C/C=C(\C)CCC=C(C)C)C1=O` showed a pIC50 of less than 5.00. `COC1=CC(=O)C(=O)C(C/C=C(\C)CCC=C(C)C)=C1OC` was tested, and the pIC50 was less than 5.00. `CCCCC1=C(O)C(=O)C=C(OC)C1=O` showed a pIC50 of less than 5.00. `CCCCCCCCCCCCCCC1=C(O)C(=O)C=C(O)C1=O` showed a pIC50 of 5.80. For `CCCCCCCCCCCCCC1=C(O)C(=O)C=C(O)C1=O` [CHEBI:8779], the pIC50 was 6.05. `CCCCCCCCC1=C(OC)C(=O)C=C(OC)C1=O` showed a pIC50 of less than 5.00. `CCCCCCC1=C(O)C(=O)C=C(O)C1=O` gave a pIC50 of less than 5.00. In the case of `CCCCCCCCCCC1=C(O)C(=O)C=C(O)C1=O`, the pIC50 was 6.00. With `CCCCCCCCCCCCCCC1=C(OC)C(=O)C=C(OC)C1=O` the pIC50 was 5.36. `CCCCCCCCCCCCCCCC1=C(O)C(=O)C=C(O)C1=O` showed a pIC50 of 5.68. Compound `CCCCCCC1=C(OC)C(OC)=CC(=O)C1=O` has a pIC50 of less than 5.00. With `CCCCCCCCCCC1=C(OC)C(OC)=CC(=O)C1=O` the pIC50 was less than 5.00. `CCCCCCCCCCCCCCCC1=C(OC)C(=O)C=C(OC)C1=O` was tested, and the pIC50 was 5.14. Work on `COC1=CC(=O)C(OC)=C(C/C=C(\C)CC/C=C(\C)CCC=C(C)C)C1=O` yielded a pIC50 of less than 5.00. With `CCCCCCCCCCCCCCCCC1=C(O)C(=O)C=C(O)C1=O` the pIC50 was less than 5.00. With `CCCCCCCCC1=C(OC)C(OC)=CC(=O)C1=O` the pIC50 was less than 5.00. With `CCCCCCCCCCCCCC1=C(OC)C(=O)C=C(OC)C1=O` the pIC50 was 5.74. `CCCCCCCCCCCCCCCC1=C(OC)C(OC)=CC(=O)C1=O` gave a pIC50 of less than 5.00. In the case of `CCCCCCCCCCCCCC1=C(OC)C(OC)=CC(=O)C1=O`, the pIC50 was less than 5.00. Compound `CCCCCCCCCCCCCCCCC1=C(O)C(=O)C=C(OC)C1=O` has a pIC50 of less than 5.00. `CCCCC1=C(OC)C(OC)=CC(=O)C1=O` showed a pIC50 of less than 5.00. Work on `CCCCCCCCCCCCC1=C(O)C(=O)C=C(OC)C1=O` yielded a pIC50 of 5.24. Work on `CCCCCCCCCCC1=C(O)C(=O)C=C(OC)C1=O` yielded a pIC50 of less than 5.00. Work on `CCCCCCCCCCCCCCCCC1=C(OC)C(=O)C=C(OC)C1=O` yielded a pIC50 of less than 5.00. `CCCCCCC1=C(O)C(=O)C=C(OC)C1=O` was tested, and the pIC50 was less than 5.00. With `CCCCCCCCCCCC1=C(OC)C(OC)=CC(=O)C1=O` the pIC50 was less than 5.00. `CCCCCCC1=C(OC)C(=O)C=C(OC)C1=O` gave a pIC50 of less than 5.00. `CC(C)=CCC/C(C)=C/CC/C(C)=C/CC1=C(O)C(=O)C=C(O)C1=O` gave a pIC50 of less than 5.00. In the case of `CCCCCCCCCCC1=C(OC)C(=O)C=C(OC)C1=O`, the pIC50 was less than 5.00. `CCCCCCCCCCCCC1=C(O)C(=O)C=C(O)C1=O` showed a pIC50 of 5.51. Work on `CCCCC1=C(OC)C(=O)C=C(OC)C1=O` yielded a pIC50 of less than 5.00. With `CCCCCCCCCCCCCCC1=C(OC)C(OC)=CC(=O)C1=O` the pIC50 was less than 5.00. `CCCCCCCCCCCCC1=C(OC)C(OC)=CC(=O)C1=O` showed a pIC50 of less than 5.00. `CCCCCCCCCCCCCC1=C(O)C(=O)C=C(OC)C1=O` [Sorgoleone-364] gave a pIC50 of 5.21. For `COC1=CC(=O)C(=O)C(C/C=C(\C)CC/C=C(\C)CCC=C(C)C)=C1OC`, the pIC50 was less than 5.00. `CCCCCCCCCCCCC1=C(OC)C(=O)C=C(OC)C1=O` gave a pIC50 of 5.33. Work on `CC(C)=CCC/C(C)=C/CC1=C(O)C(=O)C=C(O)C1=O` yielded a pIC50 of less than 5.00. For `CCCCCCCCCCCC1=C(OC)C(=O)C=C(OC)C1=O`, the pIC50 was less than 5.00. Compound `CCCCCCCCC1=C(O)C(=O)C=C(O)C1=O` has a pIC50 of 6.10. Work on `CCCCC1=C(O)C(=O)C=C(O)C1=O` yielded a pIC50 of less than 5.00. For `COC1=CC(=O)C(OC)=C(C/C=C(\C)CCC=C(C)C)C1=O`, the pIC50 was less than 5.00. Compound `CCCCCCCCC1=C(O)C(=O)C=C(OC)C1=O` has a pIC50 of less than 5.00. Compound `CCCCCCCCCCCC1=C(O)C(=O)C=C(O)C1=O` [CHEBI:4778] has a pIC50 of 6.68. `CCCCCCCCCCCC1=C(O)C(=O)C=C(OC)C1=O` [CHEBI:65842] showed a pIC50 of 5.04. For `CCCCCCCCCCCCCCCC1=C(O)C(=O)C=C(OC)C1=O`, the pIC50 was 5.03.
